Here are results for seven compounds from US7803808B2, “Production of polyketides and other natural products” (Wyeth LLC, priority 2004, dated 2010).

One experiment relates to murine splenic B cells. The conditions noted are these: compared to rapamycin; Box et al., 1995; cited from earlier work.
Another experiment concerns murine splenic T cells. Conditions: compared to rapamycin; Box et al., 1995; cited from earlier work.
In another experiment the target is FKBP12 PPlase (Homo sapiens, UniProt P62942). The conditions noted are these: compared to rapamycin; Box et al., 1995; cited from earlier work.
A further experiment relates to fungi. The conditions noted are these: compared to rapamycin, cited from earlier work; for antifungal activities: Wong et al., 1998.
Experiment [1] deals with mixed lymphocyte reaction. Conditions: Nishida et al., 1995; cited from earlier work.
Experiment [2] deals with 251L (GXF 251L, gastric) tumour cell line. Nature of the experiment: Monolayer proliferation assay (modified propidium iodide), 251L. It is filed as cell-based, human. Conditions: 4 days incubation, mean of duplicate experiments. The procedure:
(§1) In vitro evaluation of compounds for anticancer activity in a panel of 12 human tumour cell lines in a monolayer proliferation assay were carried out at the Oncotest Testing Facility, Institute for Experimental Oncology, Oncotest GmbH, Freiburg.
(§2) The Oncotest cell lines were established from human tumor xenografts as described by Roth et al. 1999. The origin of the donor xenografts was described by Fiebig et al. 1992. Other cell lines were either obtained from the NCI (H460, SF-268, OVCAR-3, DU145, MDA-MB-231, MDA-MB-468) or purchased from DSMZ, Braunschweig, Germany (LNCAP).
(§3) All cell lines, unless otherwise specified, are grown at 37° C. in a humidified atmosphere (95% air, 5% CO2) in a ‘ready-mix’ medium containing RPMI 1640 medium, 10% fetal calf serum, and 0.1 mg/mL gentamicin (PAA, Cölbe, Germany).
(§4) A modified propidium iodide assay was used to assess the effects of the test compound(s) on the growth of twelve human tumor cell lines (Dengler et al., 1995).
(§5) Briefly, cells were harvested from exponential phase cultures by trypsinization, counted and plated in 96 well flat-bottomed microtitre plates at a cell density dependent on the cell line (5-10.000 viable cells/well). After 24 h recovery to allow the cells to resume exponential growth, 0.01 mL of culture medium (6 control wells per plate) or culture medium containing 39-desmethoxyrapamycin were added to the wells. Each concentration was plated in triplicate. […] Following 4 days of continuous incubation, cell culture medium with or without 39-desmethoxyrapamycin was replaced by 0.2 mL of an aqueous propidium iodide (PI) solution (7 mg/L). To measure the proportion of living cells, cells were permeabilized by freezing the plates. After thawing the plates, fluorescence was measured using the Cytofluor 4000 microplate reader (excitation 530 nm, emission 620 nm), giving a direct relationship to the total number of viable cells.
(§6) Growth inhibition was expressed as treated/control×100 (% T/C) and are provided for a selection of cell lines. […]

The test system of experiment [3] is MCF7 (MCF-7, breast) tumour cell line. The experiment is described as follows: Monolayer proliferation assay (modified propidium iodide), MCF7. It is filed as cell-based, human. The conditions noted are these: 4 days incubation, mean of duplicate experiments. The procedure: as §1, §2, §3, §4
(§7) Briefly, cells were harvested from exponential phase cultures by trypsinization, counted and plated in 96 well flat-bottomed microtitre plates at a cell density dependent on the cell line (5-10.000 viable cells/well). After 24 h recovery to allow the cells to resume exponential growth, 0.01 mL of culture medium (6 control wells per plate) or culture medium containing 39-desmethoxyrapamycin were added to the wells. Each concentration was plated in triplicate. 39-Desmethoxyrapamycin was applied in two concentrations (0.001 mM and 0.01 mM). Following 4 days of continuous incubation, cell culture medium with or without 39-desmethoxyrapamycin was replaced by 0.2 mL of an aqueous propidium iodide (PI) solution (7 mg/L). To measure the proportion of living cells, cells were permeabilized by freezing the plates. After thawing the plates, fluorescence was measured using the Cytofluor 4000 microplate reader (excitation 530 nm, emission 620 nm), giving a direct relationship to the total number of viable cells.
as §6

Experiment [4] relates to OVCAR3 (OVCAR-3, ovarian) tumour cell line. The experiment is described as follows: Monolayer proliferation assay (modified propidium iodide), OVCAR3. It is filed as cell-based, human. Conditions: 4 days incubation, mean of duplicate experiments. On the procedure:
as §1, §2, §3, §4, §7, §6

Experiment [5] deals with H460 (NCl-H460, lung) tumour cell line. The experiment is described as follows: Monolayer proliferation assay (modified propidium iodide), H460. It is filed as cell-based, human. The conditions noted are these: 4 days incubation, mean of duplicate experiments. The procedure:
as §1, §2, §3, §4, §7
Growth inhibition was expressed as treated/control×100 (% T/C) and are provided for a selection of cell lines. For active compounds, the average IC50 & IC70 values across the entire cell line panel examined were estimated by plotting compound concentration versus cell viability and are also provided.
In vitro evaluation of 17-desmethyl-39-desmethoxyrapamycin for anticancer activity in a panel of 12 human tumour cell lines in a monolayer proliferation assay was carried out as described above using a modified propidium iodide assay.

Experiment [6] has as its system 1138L (UXF 1138L, uterus) tumour cell line. Nature of the experiment: Monolayer proliferation assay (modified propidium iodide), 1138L. It is filed as cell-based, human. Conditions: 4 days incubation, mean of duplicate experiments. On the procedure: as §1, §2, §3, §4, §7, §6
For experiment [7], the system named is DU145 (prostate, PTEN positive) tumour cell line. The experiment is described as follows: Monolayer proliferation assay (modified propidium iodide), DU145. It is filed as cell-based, human. Conditions: 4 days incubation, mean of duplicate experiments. On the procedure:
as §1, §2, §3, §4, §7, §6

In experiment [8] the test system is SF268 (SF-268, CNS) tumour cell line. Nature of the experiment: Monolayer proliferation assay (modified propidium iodide), SF268. It is filed as cell-based, human. Conditions: 4 days incubation, mean of duplicate experiments. The procedure:
as §1, §2, §3, §4, §7, §6

For experiment [9], the system named is panel of human tumour cell lines. Nature of the experiment: Monolayer proliferation assay, mean across the cell line panel. It is filed as cell-based. Conditions: average across the cell lines tested; estimated from concentration versus cell viability. On the procedure:
as §1, §2, §3, §4, §7, §6

Experiment [10] relates to 394NL (MEXF 394NL, melanoma) tumour cell line. The experiment is described as follows: Monolayer proliferation assay (modified propidium iodide), 394NL. It is filed as cell-based, human. Conditions: 4 days incubation, mean of duplicate experiments. The procedure:
as §1, §2, §3, §4, §5, §6

The test system of experiment [11] is LNCAP (prostate, PTEN negative) tumour cell line. The experiment is described as follows: Monolayer proliferation assay (modified propidium iodide), LNCAP. It is filed as cell-based, human. Conditions: 4 days incubation, mean of duplicate experiments. On the procedure:
as §1, §2, §3, §4, §5, §6

Another experiment concerns cell proliferation. Conditions: compared to rapamycin; Khaw et al., 1998; cited from earlier work.

A word on the IC50: it is the midpoint of a concentration-inhibition curve.

Sequence of FKBP12 PPlase (P62942 whole entry): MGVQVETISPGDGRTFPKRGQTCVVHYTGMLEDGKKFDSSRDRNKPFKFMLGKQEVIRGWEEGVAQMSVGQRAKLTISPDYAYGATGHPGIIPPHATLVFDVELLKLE

For `CO[C@H]1C[C@@H]2CC[C@@H](C)[C@@](O)(O2)C(=O)C(=O)N2CCCC[C@H]2C(=O)O[C@H]([C@H](C)C[C@@H]2CC[C@@H](O)[C@H](OC)C2)CC(=O)[C@H](C)/C=C(\C)[C@@H](O)[C@@H](O)C(=O)[C@H](C)C[C@H](C)/C=C/C=C/C=C/1C` [27-O-desmethylrapamycin], the “inhibition of LPS-stimulated proliferation of murine splenic B cells” value in the experiment with murine splenic B cells was “decreased when compared to rapamycin”. Moreover, the “inhibition of ConA-stimulated proliferation of murine splenic T cells” value in the experiment on murine splenic T cells was “decreased when compared to rapamycin”. The “inhibition of FKBP12 PPlase activity” value at FKBP12 PPlase is reported as “seemed to be increased”. Besides, in the experiment on fungi (Box et al., 1995), the antifungal activity entry is reported as “lower than that of rapamycin”. For the same compound, the antifungal activities result with fungi is listed as “lower than that of rapamycin”.

For the compound `CO[C@H]1C[C@@H]2CC[C@@H](C)[C@](O)(CC(=O)N3CCCC[C@H]3C(=O)O[C@H]([C@H](C)C[C@@H]3CC[C@@H](O)[C@H](OC)C3)CC(=O)[C@H](C)/C=C(\C)[C@@H](O)[C@@H](OC)C(=O)[C@H](C)C[C@H](C)/C=C/C=C/C=C/1C)O2` [9-deoxorapamycin], in experiment [1], the “mixed lymphocyte reaction (MLR) inhibitory activity” value is recorded as “more significant decrease in activity”.

Turning to `CO[C@H]1C[C@@H]2CC[C@@H](C)[C@@](O)(O2)C(=O)C(=O)N2CCCC[C@H]2C(=O)O[C@H]([C@H](C)C[C@@H]2CC[C@@H](O)[C@H](OC)C2)CC(=O)[C@H](C)/C=C(\C)[C@@H](O)CC(=O)[C@H](C)C[C@H](C)/C=C/C=C/C=C/1C` [27-desmethoxyrapamycin], the antifungal activities entry in the experiment on fungi is listed as “lower than that of rapamycin”.

Consider `CO[C@@H]1/C=C/C=C/C=C/[C@@H](C)C[C@@H](C)C(=O)[C@H](OC)[C@H](O)/C(C)=C/[C@@H](C)C(=O)C[C@@H]([C@H](C)C[C@H]2CC[C@H](O)CC2)OC(=O)[C@@H]2CCCCN2C(=O)C(=O)[C@]2(O)O[C@@H](CC[C@H]2C)C1` [17-desmethyl-39-desmethoxyrapamycin], for which the “Test/Control (%) at drug concentration” value is recorded as 85% in [2] (1 μM); 89% in experiment [2] (10 μM); 16% in experiment [2] (100 μM); 59% in experiment [3] (1 μM); 52% in experiment [3] (10 μM); 8% in experiment [3] (100 μM). Besides, the “Test/Control (%) at drug concentration” value in [4] (1 μM) amounted to 84%; in experiment [4] (10 μM) it was 61%; in experiment [4] (100 μM) it was 8%; in [5] (1 μM) it was 82%; in experiment [5] (10 μM), 76%; in experiment [5] (100 μM), 3%. For the same compound, the “Test/Control (%) at drug concentration” value in experiment [6] (1 μM) is recorded as 59%; in experiment [6] (10 μM), 46%; in experiment [6] (100 μM) it was 5%; in [7] (1 μM), 69%; in experiment [7] (10 μM), 66%; in experiment [7] (100 μM) it was 5%. Besides, the “Test/Control (%) at drug concentration” value in experiment [8] (1 μM) was 57%; in experiment [8] (10 μM) it was 37%; in experiment [8] (100 μM) it was 4%; in [10] (1 μM), 66%; in experiment [10] (10 μM), 61%; in [10] (100 μM), 4%. Moreover, the “Test/Control (%) at drug concentration” value stood at 59% in experiment [11] (1 μM), 43% in experiment [11] (10 μM) and 15% in [11] (100 μM). In addition, in experiment [9], the IC50 was 13.3 µM. Besides, the “Mean IC70” value in experiment [9] was 38.2 µM.

Turning to `COC1CC2CCC(C)C(O)(O2)C(=O)C(=O)N2CCCC2C(=O)OC(C(C)CC2CCC(O)C(OC)C2)CC(=O)C(C)/C=C(\C)C(O)C(OC)C(=O)C(C)CC(C)/C=C/C=C/C=C/1C` (stereo not shown) [prolylrapamycin], the antifungal activities entry in the experiment with fungi was “lower than that of rapamycin”.

Regarding `CO[C@H]1C[C@@H]2CC[C@@H](C)[C@@](O)(O2)C(=O)C(=O)N2CC(O)C[C@H]2C(=O)O[C@H]([C@H](C)C[C@@H]2CC[C@@H](O)[C@H](OC)C2)CC(=O)[C@H](C)/C=C(\C)[C@@H](O)CC(=O)[C@H](C)C[C@H](C)/C=C/C=C/C=C/1C` (stereo partly shown) [4-hydroxyprolyl-26-desmethoxy-rapamycin], in the experiment on cell proliferation, the “inhibitory activity in proliferation assays” value is “significantly less than that of rapamycin”.

With `CO[C@H]1C[C@@H]2CC[C@@H](C)[C@@](O)(O2)C(=O)C(=O)N2CCCC[C@H]2C(=O)O[C@H]([C@H](C)C[C@@H]2CC[C@@H](O)[C@H](OC)C2)CC(=O)[C@H](C)/C=C(\C)[C@@H](O)[C@@H](OC)C(=O)[C@H](C)C[C@H](C)/C=C/C=C/C=C/1C` [Rapamycin, reference compound], the “Test/Control (%) at drug concentration” value in experiment [5] (10 μM) is 66%. Moreover, the “Mean IC70” value in [9] was 9.1 µM.
